Assays:
[1] = target: T1, Aurora kinase C (Homo sapiens) (UniProt Q9UQB9); conditions: Compound concentration 1000.0 nM
T1 sequence (whole entry): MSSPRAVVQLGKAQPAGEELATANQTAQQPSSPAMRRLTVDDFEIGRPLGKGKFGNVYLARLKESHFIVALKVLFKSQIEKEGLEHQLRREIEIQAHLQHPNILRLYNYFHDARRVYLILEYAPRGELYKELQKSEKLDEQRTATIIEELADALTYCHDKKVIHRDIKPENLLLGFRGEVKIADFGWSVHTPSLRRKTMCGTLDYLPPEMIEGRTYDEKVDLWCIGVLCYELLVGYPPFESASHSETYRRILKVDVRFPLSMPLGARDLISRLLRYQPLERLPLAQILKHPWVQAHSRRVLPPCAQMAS

[2] = target: T2, Serine/threonine-protein kinase DCLK2 (Homo sapiens) (UniProt Q8N568); conditions: Compound concentration 1000.0 nM
T2 sequence (whole entry): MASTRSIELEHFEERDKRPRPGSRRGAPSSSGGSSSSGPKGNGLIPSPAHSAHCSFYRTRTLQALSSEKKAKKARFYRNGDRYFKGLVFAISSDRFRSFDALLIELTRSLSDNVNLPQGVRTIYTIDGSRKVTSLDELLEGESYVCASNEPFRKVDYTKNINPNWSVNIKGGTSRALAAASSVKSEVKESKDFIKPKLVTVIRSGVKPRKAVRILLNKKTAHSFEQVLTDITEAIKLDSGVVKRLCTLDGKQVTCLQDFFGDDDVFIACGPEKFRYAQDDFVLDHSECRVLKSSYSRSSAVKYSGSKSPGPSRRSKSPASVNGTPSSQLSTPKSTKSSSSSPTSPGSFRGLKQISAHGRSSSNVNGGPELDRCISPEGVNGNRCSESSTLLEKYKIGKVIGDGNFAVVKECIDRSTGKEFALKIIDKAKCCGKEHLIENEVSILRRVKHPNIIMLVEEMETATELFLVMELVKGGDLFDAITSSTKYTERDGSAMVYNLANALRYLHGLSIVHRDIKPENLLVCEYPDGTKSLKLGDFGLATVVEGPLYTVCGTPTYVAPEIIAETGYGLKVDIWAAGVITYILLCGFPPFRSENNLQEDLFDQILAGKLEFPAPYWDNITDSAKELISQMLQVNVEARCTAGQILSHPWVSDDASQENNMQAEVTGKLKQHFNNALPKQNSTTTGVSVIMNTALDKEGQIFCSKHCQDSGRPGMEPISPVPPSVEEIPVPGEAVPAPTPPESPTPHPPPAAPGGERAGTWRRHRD

[3] = target: T3, Serine/threonine-protein kinase 17A (Homo sapiens) (UniProt Q9UEE5); conditions: Compound concentration 1000.0 nM
T3 sequence (whole entry): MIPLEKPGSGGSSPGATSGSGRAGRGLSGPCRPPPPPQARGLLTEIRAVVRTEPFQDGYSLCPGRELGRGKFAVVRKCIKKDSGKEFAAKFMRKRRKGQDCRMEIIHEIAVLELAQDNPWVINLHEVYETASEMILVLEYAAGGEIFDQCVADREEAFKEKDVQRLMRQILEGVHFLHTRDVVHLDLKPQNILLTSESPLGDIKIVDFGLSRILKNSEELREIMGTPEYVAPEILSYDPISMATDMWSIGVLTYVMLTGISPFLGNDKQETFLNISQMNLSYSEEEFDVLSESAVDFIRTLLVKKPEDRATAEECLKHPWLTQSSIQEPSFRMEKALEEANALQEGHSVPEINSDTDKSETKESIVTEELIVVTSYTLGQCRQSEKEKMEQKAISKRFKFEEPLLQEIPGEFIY

[4] = tested on: Epidermal growth factor receptor (Homo sapiens), P00533 [T790M]; conditions: Compound concentration 1000.0 nM
[5] = target: Tyrosine-protein kinase Fes/Fps (Homo sapiens) (UniProt P07332); conditions: Compound concentration 1000.0 nM
[6] = target: Serine/threonine-protein kinase 38-like (Homo sapiens) (UniProt Q9Y2H1); conditions: Compound concentration 1000.0 nM
[7] = target: Serine/threonine-protein kinase Nek3 (Homo sapiens) (UniProt P51956); conditions: Compound concentration 1000.0 nM
[8] = target: Phosphorylase b kinase regulatory subunit alpha, liver isoform (Homo sapiens) (UniProt P46019); conditions: Compound concentration 1000.0 nM
[9] = tested on: Phosphatidylinositol 4,5-bisphosphate 3-kinase catalytic subunit alpha isoform (Homo sapiens), P42336 [H1047Y]; conditions: Compound concentration 1000.0 nM
[10] = target: Testis-specific serine/threonine-protein kinase 1 (Homo sapiens) (UniProt Q9BXA7); conditions: Compound concentration 1000.0 nM
[11] = target: T4, Dual specificity protein kinase TTK (Homo sapiens) (UniProt P33981); conditions: Compound concentration 1000.0 nM
T4 sequence (whole entry): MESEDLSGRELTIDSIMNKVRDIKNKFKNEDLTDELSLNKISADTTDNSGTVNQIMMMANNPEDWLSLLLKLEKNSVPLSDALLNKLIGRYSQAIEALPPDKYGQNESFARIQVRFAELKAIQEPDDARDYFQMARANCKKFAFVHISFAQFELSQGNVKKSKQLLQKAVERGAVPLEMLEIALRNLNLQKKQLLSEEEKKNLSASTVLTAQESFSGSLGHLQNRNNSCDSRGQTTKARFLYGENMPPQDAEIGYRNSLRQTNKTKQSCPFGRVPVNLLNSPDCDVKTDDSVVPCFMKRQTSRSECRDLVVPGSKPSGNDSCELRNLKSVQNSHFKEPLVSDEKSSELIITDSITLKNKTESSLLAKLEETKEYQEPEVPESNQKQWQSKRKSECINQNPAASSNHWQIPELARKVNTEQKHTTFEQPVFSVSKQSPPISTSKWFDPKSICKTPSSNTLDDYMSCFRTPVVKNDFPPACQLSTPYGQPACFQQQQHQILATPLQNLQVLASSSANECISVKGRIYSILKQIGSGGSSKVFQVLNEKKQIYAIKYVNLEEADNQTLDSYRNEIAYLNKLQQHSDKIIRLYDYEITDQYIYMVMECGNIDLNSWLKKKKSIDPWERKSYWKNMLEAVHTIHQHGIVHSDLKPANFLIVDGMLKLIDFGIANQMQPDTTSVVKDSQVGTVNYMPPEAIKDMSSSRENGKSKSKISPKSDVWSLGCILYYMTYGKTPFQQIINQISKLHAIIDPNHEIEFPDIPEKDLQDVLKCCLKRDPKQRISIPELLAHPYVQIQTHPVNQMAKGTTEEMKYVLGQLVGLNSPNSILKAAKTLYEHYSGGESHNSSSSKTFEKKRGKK

[12] = target: Wee1-like protein kinase (Homo sapiens) (UniProt P30291); conditions: Compound concentration 1000.0 nM
[13] = target: Muscarinic acetylcholine receptor M5 (Homo sapiens) (UniProt P08912); conditions: Compound concentration 10.0 uM
Muscarinic acetylcholine receptor M5 (Homo sapiens), sequence (P08912 whole entry): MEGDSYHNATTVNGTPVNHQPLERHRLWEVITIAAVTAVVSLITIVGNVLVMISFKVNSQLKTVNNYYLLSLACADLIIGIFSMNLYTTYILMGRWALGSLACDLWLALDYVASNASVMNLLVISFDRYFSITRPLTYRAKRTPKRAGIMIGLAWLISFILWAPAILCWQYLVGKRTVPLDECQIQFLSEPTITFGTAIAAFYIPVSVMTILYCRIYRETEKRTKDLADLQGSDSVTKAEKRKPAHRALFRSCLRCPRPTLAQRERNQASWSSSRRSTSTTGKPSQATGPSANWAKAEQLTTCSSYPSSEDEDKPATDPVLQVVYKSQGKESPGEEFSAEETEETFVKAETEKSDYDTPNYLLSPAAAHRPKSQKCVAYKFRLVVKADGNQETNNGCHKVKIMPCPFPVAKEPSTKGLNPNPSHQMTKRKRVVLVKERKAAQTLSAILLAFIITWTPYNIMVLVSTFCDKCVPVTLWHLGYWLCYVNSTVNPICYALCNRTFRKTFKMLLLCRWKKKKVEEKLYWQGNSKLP

Testis-specific serine/threonine-protein kinase 1 (Homo sapiens), sequence (Q9BXA7 whole entry): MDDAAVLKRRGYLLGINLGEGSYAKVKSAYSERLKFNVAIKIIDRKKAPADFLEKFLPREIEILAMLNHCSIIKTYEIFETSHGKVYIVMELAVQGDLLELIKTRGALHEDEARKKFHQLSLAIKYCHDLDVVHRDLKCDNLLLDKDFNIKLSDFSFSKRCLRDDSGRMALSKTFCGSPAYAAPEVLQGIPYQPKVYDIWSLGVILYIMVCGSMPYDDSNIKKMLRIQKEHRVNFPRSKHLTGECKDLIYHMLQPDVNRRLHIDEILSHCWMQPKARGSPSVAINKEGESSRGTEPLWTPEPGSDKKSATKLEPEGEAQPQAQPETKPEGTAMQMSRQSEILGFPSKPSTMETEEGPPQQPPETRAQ
Phosphatidylinositol 4,5-bisphosphate 3-kinase catalytic subunit alpha isoform (Homo sapiens), P42336 [H1047Y], sequence (P42336 whole entry H1047Y, canonical isoform): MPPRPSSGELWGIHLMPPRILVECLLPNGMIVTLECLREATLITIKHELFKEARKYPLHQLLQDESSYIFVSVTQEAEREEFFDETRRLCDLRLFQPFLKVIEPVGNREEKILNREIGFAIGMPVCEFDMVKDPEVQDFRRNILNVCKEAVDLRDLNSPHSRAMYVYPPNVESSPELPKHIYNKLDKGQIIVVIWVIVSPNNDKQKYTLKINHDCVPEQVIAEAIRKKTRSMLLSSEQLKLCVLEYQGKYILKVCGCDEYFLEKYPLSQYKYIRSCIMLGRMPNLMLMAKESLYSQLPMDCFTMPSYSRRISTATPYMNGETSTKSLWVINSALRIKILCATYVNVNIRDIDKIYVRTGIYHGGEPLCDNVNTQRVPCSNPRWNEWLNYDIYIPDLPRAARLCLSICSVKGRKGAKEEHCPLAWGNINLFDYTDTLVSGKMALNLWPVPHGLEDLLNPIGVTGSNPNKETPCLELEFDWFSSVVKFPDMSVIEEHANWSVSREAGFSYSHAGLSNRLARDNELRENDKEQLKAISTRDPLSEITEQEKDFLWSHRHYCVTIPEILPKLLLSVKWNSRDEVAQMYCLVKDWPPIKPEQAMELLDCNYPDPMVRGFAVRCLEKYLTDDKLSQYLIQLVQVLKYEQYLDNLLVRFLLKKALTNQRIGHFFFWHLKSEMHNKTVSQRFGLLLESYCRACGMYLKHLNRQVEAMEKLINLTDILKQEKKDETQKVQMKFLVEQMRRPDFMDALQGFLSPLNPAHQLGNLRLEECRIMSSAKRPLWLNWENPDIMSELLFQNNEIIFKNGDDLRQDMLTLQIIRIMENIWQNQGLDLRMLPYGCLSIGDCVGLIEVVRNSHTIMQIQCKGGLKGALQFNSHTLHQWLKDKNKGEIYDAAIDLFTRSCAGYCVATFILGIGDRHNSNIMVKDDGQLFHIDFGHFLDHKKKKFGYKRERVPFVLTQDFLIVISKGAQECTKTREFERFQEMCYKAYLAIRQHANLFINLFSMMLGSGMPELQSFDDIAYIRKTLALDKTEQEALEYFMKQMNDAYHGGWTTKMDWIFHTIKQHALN
Wee1-like protein kinase (Homo sapiens), sequence (P30291 whole entry, looked up): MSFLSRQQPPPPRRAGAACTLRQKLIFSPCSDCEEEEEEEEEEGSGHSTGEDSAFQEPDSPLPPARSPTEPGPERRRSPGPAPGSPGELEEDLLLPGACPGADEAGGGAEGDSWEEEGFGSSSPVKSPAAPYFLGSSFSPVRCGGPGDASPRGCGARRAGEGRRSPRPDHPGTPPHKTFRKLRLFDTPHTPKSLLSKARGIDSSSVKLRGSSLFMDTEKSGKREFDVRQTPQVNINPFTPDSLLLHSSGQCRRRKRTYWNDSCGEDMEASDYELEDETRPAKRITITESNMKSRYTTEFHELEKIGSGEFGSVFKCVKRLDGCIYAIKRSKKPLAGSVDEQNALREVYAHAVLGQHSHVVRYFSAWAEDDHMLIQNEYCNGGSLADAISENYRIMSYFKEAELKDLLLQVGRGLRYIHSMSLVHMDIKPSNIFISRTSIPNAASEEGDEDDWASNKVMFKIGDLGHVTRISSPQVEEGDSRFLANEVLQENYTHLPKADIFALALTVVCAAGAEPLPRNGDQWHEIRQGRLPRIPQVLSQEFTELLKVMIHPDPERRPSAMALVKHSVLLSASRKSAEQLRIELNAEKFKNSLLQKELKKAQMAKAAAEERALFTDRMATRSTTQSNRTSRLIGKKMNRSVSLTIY
Serine/threonine-protein kinase 38-like (Homo sapiens), sequence (Q9Y2H1 2-464 limits assumed): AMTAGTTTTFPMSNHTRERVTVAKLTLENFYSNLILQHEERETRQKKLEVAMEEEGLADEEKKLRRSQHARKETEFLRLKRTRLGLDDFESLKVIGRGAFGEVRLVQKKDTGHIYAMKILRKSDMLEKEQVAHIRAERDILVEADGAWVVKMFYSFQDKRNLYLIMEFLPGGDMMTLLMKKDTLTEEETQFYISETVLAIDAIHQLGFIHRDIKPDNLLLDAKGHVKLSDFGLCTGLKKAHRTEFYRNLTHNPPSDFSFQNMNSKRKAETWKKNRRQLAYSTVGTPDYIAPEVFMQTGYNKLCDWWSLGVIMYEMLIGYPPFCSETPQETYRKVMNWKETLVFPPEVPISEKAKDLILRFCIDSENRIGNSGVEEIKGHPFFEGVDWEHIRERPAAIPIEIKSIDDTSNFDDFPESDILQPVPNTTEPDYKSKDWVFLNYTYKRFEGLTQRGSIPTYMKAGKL
Phosphorylase b kinase regulatory subunit alpha, liver isoform (Homo sapiens), sequence (P46019 whole entry, canonical isoform): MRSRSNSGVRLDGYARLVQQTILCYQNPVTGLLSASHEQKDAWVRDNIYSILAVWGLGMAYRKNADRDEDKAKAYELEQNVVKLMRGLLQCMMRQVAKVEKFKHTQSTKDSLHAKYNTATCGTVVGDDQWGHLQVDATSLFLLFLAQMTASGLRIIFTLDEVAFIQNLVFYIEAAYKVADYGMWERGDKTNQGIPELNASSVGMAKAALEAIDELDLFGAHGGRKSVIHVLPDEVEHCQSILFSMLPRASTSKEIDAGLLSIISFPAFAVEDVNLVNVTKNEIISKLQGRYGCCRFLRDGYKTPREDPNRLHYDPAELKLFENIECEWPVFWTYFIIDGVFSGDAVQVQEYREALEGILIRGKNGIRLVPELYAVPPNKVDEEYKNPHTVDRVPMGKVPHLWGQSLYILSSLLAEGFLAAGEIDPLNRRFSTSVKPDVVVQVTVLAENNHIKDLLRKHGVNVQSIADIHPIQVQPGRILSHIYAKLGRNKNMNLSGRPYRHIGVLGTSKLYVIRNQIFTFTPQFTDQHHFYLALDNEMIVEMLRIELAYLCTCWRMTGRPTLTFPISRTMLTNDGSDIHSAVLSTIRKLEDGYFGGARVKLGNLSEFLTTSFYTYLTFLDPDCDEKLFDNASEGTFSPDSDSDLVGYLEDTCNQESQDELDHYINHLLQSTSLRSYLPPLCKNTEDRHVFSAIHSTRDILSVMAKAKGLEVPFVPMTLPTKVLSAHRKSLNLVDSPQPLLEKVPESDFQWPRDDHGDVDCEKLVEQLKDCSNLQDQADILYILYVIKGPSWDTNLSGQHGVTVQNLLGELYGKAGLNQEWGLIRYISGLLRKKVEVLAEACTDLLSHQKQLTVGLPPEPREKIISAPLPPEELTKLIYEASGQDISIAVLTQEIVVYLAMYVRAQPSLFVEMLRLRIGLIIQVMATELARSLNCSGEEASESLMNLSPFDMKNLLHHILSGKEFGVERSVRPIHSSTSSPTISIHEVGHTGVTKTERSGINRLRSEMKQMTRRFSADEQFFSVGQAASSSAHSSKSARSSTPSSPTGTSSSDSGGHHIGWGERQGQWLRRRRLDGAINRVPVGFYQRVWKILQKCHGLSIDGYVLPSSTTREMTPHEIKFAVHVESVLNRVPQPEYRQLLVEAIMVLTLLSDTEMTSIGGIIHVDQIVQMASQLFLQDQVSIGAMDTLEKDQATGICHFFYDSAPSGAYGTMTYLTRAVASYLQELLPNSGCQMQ
Serine/threonine-protein kinase Nek3 (Homo sapiens), sequence (P51956 whole entry, canonical isoform): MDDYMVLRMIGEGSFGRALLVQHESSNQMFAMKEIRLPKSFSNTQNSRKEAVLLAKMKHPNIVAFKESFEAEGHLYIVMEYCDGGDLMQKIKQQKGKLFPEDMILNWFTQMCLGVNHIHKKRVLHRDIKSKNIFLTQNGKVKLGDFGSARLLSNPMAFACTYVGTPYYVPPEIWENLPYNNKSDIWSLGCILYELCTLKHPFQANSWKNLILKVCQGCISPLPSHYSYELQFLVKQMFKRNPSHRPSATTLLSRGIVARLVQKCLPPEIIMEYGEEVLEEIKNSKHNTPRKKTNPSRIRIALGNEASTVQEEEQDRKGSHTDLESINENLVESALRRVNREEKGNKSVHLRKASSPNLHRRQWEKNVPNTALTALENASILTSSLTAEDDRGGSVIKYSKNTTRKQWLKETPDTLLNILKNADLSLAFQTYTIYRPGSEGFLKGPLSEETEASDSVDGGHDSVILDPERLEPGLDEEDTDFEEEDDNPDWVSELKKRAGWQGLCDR

CN(C)C(=O)Cn1cc(-c2nc(C3(c4ccc(-c5cnc(N)nc5)cc4)CC3)no2)cn1 [BI 0153]
inactive: residual activity [1] 100% | residual activity [2] 96% | residual activity [3] 100% | residual activity [4] 80% | residual activity [5] 100% | residual activity [6] 81% | residual activity [7] 57% | residual activity [8] 91% | residual activity [9] 94% | residual activity [10] 100% | residual activity [11] 100% | residual activity [12] 87% | inhibition [13] -1.63%

CN(C)C(=O)Cn1cc(-c2nc([C@@](C)(c3ccc(-c4cnc(N)nc4)cc3)C3CC3)no2)cn1 [BI 665915]
inactive: residual activity [1] 100% | residual activity [2] 91% | residual activity [3] 100% | residual activity [4] 100% | residual activity [5] 100% | residual activity [6] 91% | residual activity [7] 87% | residual activity [8] 80% | residual activity [9] 87% | residual activity [10] 100% | residual activity [11] 100% | residual activity [12] 94% | inhibition [13] 5.21%

Reference: ChEMBL document CHEMBL4507276 (2021)
